Experimental data reported in the supplement of paper PMC10307832.

Columns and labels:
Experiment in all cases: relative viability (nuclei count vs DMSO), 5 days (fraction); higher = more cells survive
[1] = compound: COc1cccc2cc(-c3nc([C@H]4CC[C@H](C(=O)O)CC4)n4ncnc(N)c34)[nH]c12 [OSI-027] + Nc1nc2[nH]cc(CCc3ccc(C(=O)N[C@@H](CCC(=O)O)C(=O)O)cc3)c2c(=O)[nH]1 [Pemetrexed] (partner 0.2 µM)
Procedure, shortened: (§1)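 Lung cancer cell lines in 1536-well plates got either a single drug or a fixed anchor-drug dose together with five library-drug doses (not always all listed) in √10 steps, by pin tool, on the day after seeding. Nuclei were counted after 5 days, and relative viability is the treated-to-vehicle ratio of nuclei counts. Values are medians of duplicate plates.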

[2] = compound: Cc1nc(NC(=O)N2CCC[C@H]2C(N)=O)sc1-c1ccnc(C(C)(C)C(F)(F)F)c1 [Alpelisib] + COc1cc2c(Oc3ccc(NC(=O)C4(C(=O)Nc5ccc(F)cc5)CC4)cc3F)ccnc2cc1OCCCN1CCOCC1 [Foretinib] (partner 0.25 µM)
Procedure, shortened: as §1

[3] = compound: CCCS(=O)(=O)Nc1ccc(F)c(C(=O)c2c[nH]c3ncc(-c4ccc(Cl)cc4)cc23)c1F [Vemurafenib] + O=C(c1cc(Cc2n[nH]c(=O)c3ccccc23)ccc1F)N1CCN(C(=O)C2CC2)CC1 [Olaparib] (partner 8 µM)
Procedure, shortened: as §1

[4] = compound: Cc1nc(NC(=O)N2CCC[C@H]2C(N)=O)sc1-c1ccnc(C(C)(C)C(F)(F)F)c1 [Alpelisib] + CC1(C)CCC(c2ccc(Cl)cc2)=C(CN2CCN(c3ccc(C(=O)NS(=O)(=O)c4ccc(N[C@H](CCN5CCOCC5)CSc5ccccc5)c(S(=O)(=O)C(F)(F)F)c4)cc3)CC2)C1 [Navitoclax] (partner 0.5 µM)
Procedure, shortened: as §1

Cell Line	relative viability ([1]; first compound 0.01 µM)	relative viability ([1]; first compound 0.03162 µM)	relative viability ([1]; first compound 0.1 µM)	relative viability ([1]; first compound 0.3162 µM)	relative viability ([1]; first compound 1 µM)	relative viability ([2]; first compound 0.04 µM)	relative viability ([2]; first compound 0.1265 µM)	relative viability ([2]; first compound 0.4 µM)	relative viability ([2]; first compound 1.265 µM)	relative viability ([2]; first compound 4 µM)	relative viability ([3]; first compound 0.03162 µM)	relative viability ([3]; first compound 0.3162 µM)	relative viability ([3]; first compound 1 µM)	relative viability ([4]; first compound 0.04 µM)	relative viability ([4]; first compound 0.1265 µM)	relative viability ([4]; first compound 0.4 µM)	relative viability ([4]; first compound 1.265 µM)	relative viability ([4]; first compound 4 µM)	relative viability ([3]; first compound 0.1 µM)
HCC-827	0.259	0.23	0.276	0.264	0.242	1	1.05	0.968	0.964	0.746	0.624	0.65	0.632	1	1.02	1.06	1.01	0.908	–
HOP-62	0.371	0.307	0.341	0.331	0.261	1.08	1.15	1.23	1.02	0.978	0.38	0.412	0.438	1	0.893	1.12	0.606	1.06	0.388
LC-2-ad	0.279	0.239	0.273	0.283	0.271	0.863	0.908	0.966	0.601	0.576	0.691	0.763	0.69	0.441	0.394	0.364	0.332	0.285	0.645
LCLC-97TM1	0.178	0.207	0.147	0.186	0.15	0.879	0.913	0.883	0.73	0.449	–	0.353	0.269	0.411	0.371	0.33	0.206	0.142	0.416
LK-2	0.238	–	0.237	0.174	0.158	1.07	1.19	1.28	0.906	0.932	0.618	0.644	0.417	0.751	0.72	0.697	0.374	0.507	0.633
LOU-NH91	0.387	0.368	0.493	0.508	0.63	0.933	0.853	0.81	0.738	0.754	0.876	0.743	0.894	0.707	0.637	0.526	0.504	0.343	0.671
LU99A	0.181	0.362	0.173	0.239	0.159	0.746	0.832	0.722	0.661	0.503	0.245	–	0.264	0.785	0.716	0.773	0.546	0.426	0.259
LXF-289	0.939	0.841	1.04	0.974	0.837	0.951	1	1.08	0.909	0.764	1.02	1.09	1	0.91	0.972	0.968	0.917	0.939	1.06
NCI-H23	0.617	0.757	0.598	0.47	0.395	0.859	0.935	0.977	0.743	0.621	0.309	0.295	0.343	0.708	0.856	0.851	0.532	0.535	0.326
